Results on five compounds are retold here after patent US7041685B2, “Substituted 3-aryl-5-aryl-[1,2,4]-oxadiazoles and analogs as activators of caspases and inducers of apoptosis and the use thereof” (Cytovia, Inc., priority 2001, dated 2006).

For test [1], the system named is K562. Description: Cell proliferation assay (GI50), K562. Format: cell-based. As to conditions: Homo sapiens; K562, non-breast cancer cell line, 48 h. The method, then: [The source words this procedure for another cell line and reports this cell line under the same test.] (§1) T-47D and SKBr-3 cells were grown and harvested as in Example 121. An aliquot of 90 μL of cells (2. 2×10^4 cells/mL) was added to a well of a 96-well microtiter plate containing 10 μl of a 10% DMSO in RPMI-1640 media solution containing 1 nM to 100 μM of 5-(3-chloro-thiophen-2-yl)-3-(4-trifluoromethyl-phenyl)-[1,2,4]-oxadiazole (0.1 nM to 10 μM final). An aliquot of 90 μL of cells was added to a well of a 96-well microtiter plate containing 10 μL of a 10% DMSO in RPMI-1640 media solution without compound as the control sample for maximal cell proliferation (AMax). The samples were mixed by agitation and then incubated at 37° C. for 48 h in a 5% CO2—95% humidity incubator. After incubation, the samples were removed from the incubator and 20 μL of CellTiter 96 AQUEOUS One Solution Cell Proliferation™ reagent (Promega) was added. The samples were mixed by agitation and incubated at 37° C. for 2-4 h in a 5% CO2—95% humidity incubator. Using an absorbance plate reader (Model 1420 Wallac Instruments), an initial reading (T=0) was made approximately 1-2 min after addition of the solution, employing absorbance at 490 nm. This determines the possible background absorbance of the test compounds. No absorbance for 5-(3-chloro-thiophen-2-yl)-3-(4-trifluoromethyl-phenyl)-[1,2,4]-oxadiazole was found at 490 nm. After the 2-4 h incubation, the samples were read for absorbance as above (ATest). […]

Test [2] deals with PC-3. Description: Cell proliferation assay (GI50), PC-3. Format: cell-based. As to conditions: Homo sapiens; PC-3, non-breast cancer cell line, 48 h. How it is done: [The source words this procedure for another cell line and reports this cell line under the same test.] as §1
Test [3] has as its system Panc-1. In words: Cell proliferation assay (GI50), Panc-1. Format: cell-based. Particulars: Homo sapiens; Panc-1, non-breast cancer cell line, 48 h. The method, then:
[The source words this procedure for another cell line and reports this cell line under the same test.] as §1

Test [4] deals with DLD-1. Description: Cell proliferation assay (GI50), DLD-1. Format: cell-based. Particulars: Homo sapiens; DLD-1, colon cancer cell line, 48 h.
The subject of test [5] is MX-1. Description: Cell proliferation assay (GI50), MX-1. The test is classed as cell-based. Particulars: Homo sapiens, MX1; MX-1, breast cancer cell line, 48 h. How it is done: [The source words this procedure for another cell line and reports this cell line under the same test.] as §1
Test [6] has as its system T-47D. In words: Caspase cascade activation assay (fluorogenic N-(Ac-DEVD)-N'-ethoxycarbonyl-R110 substrate) in T-47D cells. Format: cell-based, Human. As to conditions: 48 h incubation; for Caspase Activity Ratio: ratio of net RFU of compound to control; for EC50: Homo sapiens, T47D, read-out: Caspase Potency EC50. How it is done:
Human breast cancer cell lines T-47D and ZR-75-1 were grown according to media component mixtures designated by American Type Culture Collection +10% FCS (Invitrogen Corporation), in a 5% CO2—95% humidity incubator at 37° C. T-47D and ZR-75-1 cells were maintained at a cell density between 50 and 80% confluency at a cell density of 0.1 to 0.6×10^6 cells/mL. Cells were harvested at 600×g and resuspended at 0.65×10^6 cells/mL into appropriate media +10% FCS. An aliquot of […] of cells was added to a well of a […] microtiter plate containing 2.5 μl of a 10% DMSO in RPMI-1640 media solution containing 0.16 to 100 μM of 5-(3-chloro-thiophen-2-yl)-3-(4-trifluoromethyl-phenyl)-[1,2,4]-oxadiazole or other test compound (0.016 to 10 μM final). An aliquot of 22.5 μL of cells was added to a well of a […] microtiter plate containing 2.5 μl of a 10% DMSO in RPMI-1640 media solution without test compound as the control sample. The samples were mixed by agitation and then incubated at 37° C. for 48 h in a 5% CO2—95% humidity incubator. After incubation, the samples were removed from the incubator and 25 μL of a solution containing 14 μM of N-(Ac-DEVD)-N′-ethoxycarbonyl-R110 (SEQ ID No.:1) fluorogenic substrate (Maxim, Inc.; WO99/18856), 20% sucrose (Sigma), 20 mM DTT (Sigma), 200 mM NaCl (Sigma), 40 mM Na PIPES buffer pH 7.2 (Sigma), and 500 μg/mL lysolecithin (Calbiochem) was added. The samples were mixed by agitation and incubated at room temperature. Using a fluorescent plate reader (Model SpectraMax Gemini, Molecular Devices), an initial reading (T=0) was made approximately 1-2 min after addition of the substrate solution, employing excitation at 485 nm and emission at 530 nm, to determine the background fluorescence of the control sample. After the 3 h incubation, the samples were read for fluorescence as above (T=3 h).
The Relative Fluorescence Unit values (RFU) were used to calculate the sample readings as follows: RFU(T=3 h)−Control RFU(T=0)=Net RFU(T=3 h)
The activity of caspase cascade activation was determined by the ratio of the net RFU value for 5-(3-chloro-thiophen-2-yl)-3-(4-trifluoromethyl-phenyl)-[1,2,4]-oxadiazole or other test compound to that of control samples. The EC50 (nM) was determined by a sigmoidal dose-response calculation (Prism 2.0, GraphPad Software Inc.).

Test [7] relates to T-47D. Description: Cell proliferation assay (GI50), T-47D. Format: cell-based. Particulars: Homo sapiens, T47D, 48 h. The method, then:
as §1

Test [8] deals with ZR-75-1. In words: Cell proliferation assay (GI50), ZR-75-1. Format: cell-based. Particulars: Homo sapiens, ZR75-1, 48 h. The method, then:
[The source words this procedure for another cell line and reports this cell line under the same test.] as §1

Test [9] concerns SW-620. In words: Cell proliferation assay (GI50), SW-620. Format: cell-based. Particulars: Homo sapiens; SW-620, non-breast cancer cell line, 48 h.
Test [10] has as its system SK-Br-3. Description: Cell proliferation assay (GI50), SK-Br-3. Format: cell-based. Particulars: Homo sapiens; SK-Br-3, breast cancer cell line, 48 h. How it is done: as §1
Test [11] has as its system NCI-H23. Description: Cell proliferation assay (GI50), NCI-H23. Format: cell-based. Particulars: Homo sapiens; NCI-H23, non-breast cancer cell line, 48 h. How it is done: [The source words this procedure for another cell line and reports this cell line under the same test.] as §1
Test [12] has as its system MX-1 cells. Description: Clonogenic survival of MX-1 solid tumor cells. Format: cell-based. Particulars: Homo sapiens, MX1, 48 h treatment, colonies counted after 7-10 days, read-out: IC50 of colony forming ability (clonogenic survival). How it is done: MX-1 cells were grown according to the conditions recommended by American Type Culture Collection. In a well of a 96 well plate, 30,000 cells were seeded and treated with compound at the indicated concentrations for 48 h in a 5% CO2—95% humidity incubator at 37° C. Control wells were treated with the same amount of solvent (DMSO) as the compound samples. After the indicated treatment time, the supernatant was removed to a sterile culture tube and the wells washed with phosphate buffered saline, and the adherent cells trypsinized for 5 min. The trypsinzed cells were added to the culture supernatant, cells were collected (1,200 rpm, 10 min), washed with phosphate buffered saline, and resupended in fresh media. The cells were counted for trypan blue negative cells, and the cells diluted with fresh media to 1,000 cells/mL. To a well of a 24-well plate, 0.1 mL of the cell suspension was added along with 1 mL of fresh media (cell suspensions were passed through a 22G needle several times just before plating to form single cell suspensions). Plates are incubated in a 5% CO2—95% humidity incubator at 37° C. for 7-10 days. Colonies are counted when the sizes reached greater than 50 cells per colony. […] Colonies are rinsed with water and the colonies counted and the fraction surviving expressed as the percentage of the number of control colonies.

Structures are written as SMILES.

`Clc1ccc(-c2noc(-c3sccc3Cl)n2)cc1` [Example 1, 3-(4-Chloro-phenyl)-5-(3-chloro-thiophen-2-yl)-[1,2,4]-oxadiazole]: the GI50 is above 10 µM in test [1]; above 10 µM in test [2]; above 10 µM in [3]; 0.035 µM in [4]; 0.3 µM in [5]; 0.25 µM in [7]. Besides, the GI50 in test [8] was 0.2 µM; in test [9], above 10 µM; in test [10] it was 0.02 µM; in test [11] it was above 10 µM. Further, the “Caspase Activity Ratio” value in test [6] turned out to be 16.9. Besides, in test [6], the EC50 was 3.61 µM.
On to `FC(F)(F)c1ccc(-c2noc(-c3sccc3Cl)n2)cc1` [Example 4, 5-(3-Chloro-thiophen-2-yl)-3-(4-trifluoromethyl-phenyl)-[1,2,4]-oxadiazole], for which, in [6], the “Caspase Activity Ratio” value came to 4.2 and the EC50 was found to be 5.35 µM. Besides, the IC50 in test [12] was around 1.05 µM.
With `Fc1ccc(-c2noc(-c3sccc3Cl)n2)cc1` [Example 5, 5-(3-Chloro-thiophen-2-yl)-3-(4-fluoro-phenyl)-[1,2,4]-oxadiazole], the GI50 in test [1] is above 10 µM; in [2], above 10 µM; in [3], above 10 µM; in test [4], 0.04 µM; in test [5] it was 0.4 µM; in test [7], 0.3 µM. Besides, the GI50 in [8] was 0.4 µM; in test [9] it was above 10 µM; in [10] it was 0.02 µM; in test [11], above 10 µM. Also, in test [6], the “Caspase Activity Ratio” value was found to be 19.7. The EC50 in test [6] stood at 2.15 µM.
In the case of `O=[N+]([O-])c1ccc(-c2noc(-c3sccc3Cl)n2)cc1` [Example 6, 5-(3-Chloro-thiophen-2-yl)-3-(4-nitro-phenyl)-[1,2,4]-oxadiazole], in test [6], the “Caspase Activity Ratio” value came to 3.8 and the EC50 turned out to be 5 µM.
The like results for `Clc1ccc(-c2noc(-c3sccc3Cl)n2)c(Cl)c1` [Example 7, 5-(3-Chloro-thiophen-2-yl)-3-(2,4-dichloro-phenyl)-[1,2,4]-oxadiazole] were, in that order, 4.1 and 0.865 µM.

Usually GI50 stands for the concentration giving 50% growth inhibition. The low end stands for more potent growth inhibition, the high end for less potent growth inhibition. Broadly, the EC50 is the concentration needed to bring the measured effect to its halfway point. In general, IC50 refers to the concentration that inhibits the measured activity by half.
